Columns and labels:
Set-up in all cases: key: 0: normal development; 1: Less damaged; 2: Slightly damaged; 3: Moderately damaged; 4: Severely damaged; 5: All killed
cotton [1] = experiment: Soil treatment test for upland field; assay type: in vivo; conditions: 500 g/ha, glass house 25° C., 3 weeks
How it was run: (§1)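 Seeds planted in Wagner pots of Ube soil (alluvial) and covered. Wettable powder diluted in 0.05% surfactant water, sprayed uniformly onto soil at 500 g/ha effective rate. Grown 3 weeks, glasshouse, mean 25° C, then damage rated visually 0–5.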

solgum [2] = experiment: Soil treatment test for upland field; assay type: in vivo; conditions: 500 g/ha, glass house 25° C., 3 weeks
How it was run: as §1

soybean [3] = experiment: Soil treatment test for upland field; assay type: in vivo; conditions: 500 g/ha, glass house 25° C., 3 weeks
How it was run: as §1

sugar beat [4] = experiment: Soil treatment test for upland field; assay type: in vivo; conditions: 500 g/ha, glass house 25° C., 3 weeks
How it was run: as §1

wheat [5] = experiment: Soil treatment test for upland field; assay type: in vivo; conditions: 500 g/ha, glass house 25° C., 3 weeks
How it was run: as §1

Large crabgrass [6] = experiment: Soil treatment test for upland field; assay type: in vivo, Digitaria adscendens; conditions: 500 g/ha, glass house 25° C., 3 weeks
How it was run: as §1

barnyardgrass [7] = experiment: Soil treatment test for upland field; assay type: in vivo, Echinochloa crusgalli; conditions: 500 g/ha, glass house 25° C., 3 weeks
How it was run: as §1

green foxtail [8] = experiment: Soil treatment test for upland field; assay type: in vivo, Setaria viridis; conditions: 500 g/ha, glass house 25° C., 3 weeks
How it was run: as §1

blackgrass [9] = experiment: Soil treatment test for upland field; assay type: in vivo, Alopecurus aegualis; conditions: 500 g/ha, glass house 25° C., 3 weeks
How it was run: as §1

annual bluegrass [10] = experiment: Soil treatment test for upland field; assay type: in vivo, Poa annua; conditions: 500 g/ha, glass house 25° C., 3 weeks
How it was run: as §1

common lambsquartes [11] = experiment: Soil treatment test for upland field; assay type: in vivo, Chenopodium album; conditions: 500 g/ha, glass house 25° C., 3 weeks
How it was run: as §1

livid amaranth [12] = experiment: Soil treatment test for upland field; assay type: in vivo, Amaranthus lividus; conditions: 500 g/ha, glass house 25° C., 3 weeks
How it was run: as §1

velvetleaf [13] = experiment: Soil treatment test for upland field; assay type: in vivo, Abutilon theophrasti; conditions: 500 g/ha, glass house 25° C., 3 weeks
How it was run: as §1

solgum [14] = experiment: Foliar spread test for upland field; assay type: in vivo; conditions: foliar spray 500 ppm, 3 weeks, rank vs non-treated
How it was run: (§2)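 Crops and weeds grown about 2 weeks in volcanic ash soil in a glasshouse, then sprayed with wettable-powder formulations diluted to 500 ppm in water with 0.5% surfactant. After 3 weeks at 25 °C, injury scored visually 0 (normal) to 5 (all killed).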

sugar beat [15] = experiment: Foliar spread test for upland field; assay type: in vivo; conditions: foliar spray 500 ppm, 3 weeks, rank vs non-treated
How it was run: as §2

Large crabgrass [16] = experiment: Foliar spread test for upland field; assay type: in vivo, Digitaria adscendens; conditions: foliar spray 500 ppm, 3 weeks, rank vs non-treated
Description: (§3) (0: normal development, 1: Less damaged, 2: Slightly damaged, 3: Moderately damaged, 4: Severely damaged, 5: All killed).
(§4) Wagner pots, each having an area of 1/5000 are, were packed with volcanic ash soil and then each seed of corn, soybean, cotton, wheat, solgum, sugar beat, Large crabgrass, barnyardgrass, green foxtail, blackgrass, annual bluegrass, common lambsquartes, livid amaranth, velvetleaf and morning glory was planted, covered with soil and grown in a glass house at an average temperature of […] for about 2 weeks.
(§5) Each wettable powder of the desired compounds (I) shown in Table 1 prepared in accordance with Example 2 was diluted to 500 ppm with water containing a surfactant (0.5%) and then uniformly sprayed on the above respective plants.
(§6) After these plants were controlled in a glass house at an average temperature of 25° C. for 3 weeks, the herbicidal effects thereof were investigated.
(§7) The herbicidal effects were evaluated according to the evaluation method described in the above (1).

barnyardgrass [17] = experiment: Foliar spread test for upland field; assay type: in vivo, Echinochloa crusgalli; conditions: foliar spray 500 ppm, 3 weeks, rank vs non-treated
Description: as §3, §4, §5, §6, §7

green foxtail [18] = experiment: Foliar spread test for upland field; assay type: in vivo, Setaria viridis; conditions: foliar spray 500 ppm, 3 weeks, rank vs non-treated
Description: as §3, §4, §5, §6, §7

blackgrass [19] = experiment: Foliar spread test for upland field; assay type: in vivo, Alopecurus aegualis; conditions: foliar spray 500 ppm, 3 weeks, rank vs non-treated
Description: as §3, §4, §5, §6, §7

annual bluegrass [20] = experiment: Foliar spread test for upland field; assay type: in vivo, Poa annua; conditions: foliar spray 500 ppm, 3 weeks, rank vs non-treated
Description: as §3, §4, §5, §6, §7

common lambsquartes [21] = experiment: Foliar spread test for upland field; assay type: in vivo, Chenopodium album; conditions: foliar spray 500 ppm, 3 weeks, rank vs non-treated
How it was run: as §2

livid amaranth [22] = experiment: Foliar spread test for upland field; assay type: in vivo, Amaranthus lividus; conditions: foliar spray 500 ppm, 3 weeks, rank vs non-treated
How it was run: as §2

velvetleaf [23] = experiment: Foliar spread test for upland field; assay type: in vivo, Abutilon theophrasti; conditions: foliar spray 500 ppm, 3 weeks, rank vs non-treated
How it was run: as §2

morning glory = experiment: Foliar spread test for upland field; assay type: in vivo, Ipomoea spps.; conditions: foliar spray 500 ppm, 3 weeks, rank vs non-treated
Description: as §3, §4, §5, §6, §7

corn [24] = experiment: Soil treatment test for upland field; assay type: in vivo; conditions: 500 g/ha, glass house 25° C., 3 weeks
How it was run: as §1

corn [25] = experiment: Foliar spread test for upland field; assay type: in vivo; conditions: foliar spray 500 ppm, 3 weeks, rank vs non-treated
How it was run: as §2

cotton [26] = experiment: Foliar spread test for upland field; assay type: in vivo; conditions: foliar spray 500 ppm, 3 weeks, rank vs non-treated
How it was run: as §2

soybean [27] = experiment: Foliar spread test for upland field; assay type: in vivo; conditions: foliar spray 500 ppm, 3 weeks, rank vs non-treated
How it was run: as §2

wheat [28] = experiment: Foliar spread test for upland field; assay type: in vivo; conditions: foliar spray 500 ppm, 3 weeks, rank vs non-treated
How it was run: as §2

SMILES | Effects Solgum (solgum [2]) | Effects Soybean (soybean [3]) | Effects Sugar beat (sugar beat [4]) | Effects Wheat (wheat [5]) | Effects Large crabgrass (Large crabgrass [6]) | Effects Barnyardgrass (barnyardgrass [7]) | Effects Green foxtail (green foxtail [8]) | Effects Annual bluegrass (annual bluegrass [10]) | Effects Common lambsquarters (common lambsquartes [11]) | Effects Solgum (solgum [14]) | Effects Sugar beat (sugar beat [15]) | Effects Large crabgrass (Large crabgrass [16]) | Effects Green foxtail (green foxtail [18]) | Effects Blackgrass (blackgrass [19]) | Effects Annual bluegrass (annual bluegrass [20]) | Effects Common lambsquarters (common lambsquartes [21]) | Effects Livid amaranth (livid amaranth [22]) | Effects Velvetleaf (velvetleaf [23]) | Effects Corn (corn [25]) | Effects Wheat (wheat [28]) | other results
CCC(Oc1cccc(S(C)(=O)=O)c1)c1nc2cc(S(C)(=O)=O)ccc2o1 (stereo not drawn) [Compound 513] | 2 | 2 | 5 | 2 | 5 | 4 | 5 | 5 | 5 | 3 | 5 | 5 | 5 | 5 | 5 | 5 | 5 | 5 |  |  | Effects Cotton (cotton [1]): 2; Effects Blackgrass (blackgrass [9]): 3; Effects Livid amaranth (livid amaranth [12]): 5; Effects Velvetleaf (velvetleaf [13]): 5; Effects Barnyardgrass (barnyardgrass [17]): 3; Effects Morning glory (morning glory): 3
CCC(Oc1cccc(C(F)(F)F)c1)c1nc2cc([N+](=O)[O-])ccc2o1 (stereo not drawn) [Compound 178] | 0 | 0 | 1 | 0 | 5 | 4 | 5 | 5 | 4 | 2 | 3 | 3 | 2 | 2 | 3 | 4 | 4 | 3 | 2 | 2 | Effects Corn (corn [24]): 0; Effects Cotton (cotton [1]): 0; Effects Blackgrass (blackgrass [9]): 3; Effects Livid amaranth (livid amaranth [12]): 5; Effects Velvetleaf (velvetleaf [13]): 1; Effects Cotton (cotton [26]): 3; Effects Soybean (soybean [27]): 3; Effects Barnyardgrass (barnyardgrass [17]): 2
CCC(Oc1ccc(F)c(C(F)(F)F)c1)c1nc2cc(NC(=O)C(F)(F)F)ccc2o1 (stereo not drawn) [Compound 518] |  |  |  |  |  |  |  |  |  | 0 | 5 | 2 | 5 | 2 |  | 2 | 2 | 3 | 0 | 0 | Effects Cotton (cotton [26]): 0; Effects Soybean (soybean [27]): 0
CC(Oc1cccc(C(F)(F)F)c1)c1nc2ccc(C(F)(F)F)cc2o1 (stereo not drawn) [Compound 86] | 0 | 0 | 2 | 0 | 5 | 3 | 4 | 1 | 1 | 0 | 2 | 2 | 2 | 1 | 1 | 2 | 3 | 1 | 1 | 1 | Effects Corn (corn [24]): 0; Effects Livid amaranth (livid amaranth [12]): 5; Effects Cotton (cotton [26]): 1; Effects Soybean (soybean [27]): 2; Effects Morning glory (morning glory): 3
CCC(Oc1ccc(Cl)c(C(F)(F)F)c1)c1nc2cc(Cl)ccc2o1 (stereo not drawn) [Compound 438] |  |  |  |  |  |  |  |  |  | 2 | 5 | 3 | 3 | 2 | 3 | 3 | 5 | 3 | 2 | 2 | Effects Cotton (cotton [26]): 3; Effects Soybean (soybean [27]): 4; Effects Barnyardgrass (barnyardgrass [17]): 1; Effects Morning glory (morning glory): 4
CCC(Oc1ccc(Cl)c(C(F)(F)F)c1)c1nc2cc(C#N)c(Cl)cc2o1 (stereo not drawn) [Compound 534] | 1 | 2 | 5 | 1 | 5 | 4 | 5 | 5 | 5 | 2 | 5 | 2 |  | 3 | 4 | 4 | 5 | 5 | 2 | 2 | Effects Corn (corn [24]): 2; Effects Blackgrass (blackgrass [9]): 4; Effects Livid amaranth (livid amaranth [12]): 5; Effects Velvetleaf (velvetleaf [13]): 5; Effects Barnyardgrass (barnyardgrass [17]): 2; Effects Morning glory (morning glory): 5

Source: patent publication US6706664B1, “Benzoxazole compounds, process for the preparation thereof and herbicides” (UBE Industries, Ltd., priority 1999, dated 2004)
